Test results published in patent US20240025892A1 (priority 2020, published 2024).
“Also recorded” adds a separate entry of the source. Where two headings read alike, the source gives them in different places.

Columns and labels:
[1] = tested on: RANKL; test: RANKL gene expression in Ocy454 cells (RT-qPCR); details: maximal RANKL fold induction versus DMSO, four hours;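 note: Ocy454 cells moved to 37 °C for osteocytic differentiation before compound exposure, RANKL mRNA by SYBR Green qRT-PCR, 2^−ΔΔCT with β-actin normalization, duplicate wells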
[2] = target: SIK1 (Homo sapiens (Human), UniProt P57059); test: In vitro SIK1 kinase assay; type: biochemical
Description: (§1) Assays were performed in base reaction buffer (20 mM Hepes (pH 7.5), 10 mM MgCl2, 1 mM EGTA, 0.02% Brij35, 0.02 mg/mL BSA, 0.1 mM Na3VO4, 2 mM DTT, 1% DMSO). Compounds were dissolved in 100% DMSO in a 10 mM stock. […] Assays were performed for 20 minutes at room temperature, after which time ^33P-ATP (10 μCi/μL) was added followed by incubation for another 120 minutes at room temperature. Thereafter, radioactivity incorporated into the pEY peptide substrate was detected by filter-binding method. Kinase activity data were expressed as the percent remaining kinase activity in test samples compared to DMSO reactions. IC50 values and curve fits were obtained using Prism (GraphPad Software).

[3] = tested on: CRTC2 (TORC2); test: CRTC2 nuclear translocation (PathHunter U2OS); type: cell-based; details: maximal CRTC2 nuclear translocation, U2OS cells, 90 minutes, maximum dose 10 μM
How it was run: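 U2OS enzyme-fragment complementation cells (ED-tagged CRTC2, EA-tagged nuclear TAZ domain) treated 90 minutes, duplicate 5-point 4-fold dilutions from 10 μM. Chemiluminescent substrate signal; maximal translocation expressed as percent of forskolin-stimulated signal.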

[4] = target: NanoLuc-SIK2 fusion in HEK293 cells (Homo sapiens (Human), UniProt Q9H0K1); test: cell-based
Description: Assays were performed at Reaction Biology Corporation (Malvern, PA) in HEK293 cells from ATCC in 384 well plate format using Promega's NanoBRET TE intracellular kinase assay platform. HEK293 cells transiently expressing NanoLuc-SIK2 fusion vector were seeded into 384 well plates. Cells were pre-treated with the NanoBRET Tracer K-4 and then treated with compounds for 60 minutes in 10 point dose response format. […] IC50 values were calculated and IC50 curves were plotted using the GraphPad Prism 4 program on a sigmoidal dose response equation.

[5] = target: Recombinant SIK2 (Homo sapiens (Human), UniProt Q9H0K1); test: biochemical; details: recombinant SIK2 2.5 nM, 1 μM ATP; read-out: SIK2 IC50
[6] = target: SIK3 (Homo sapiens (Human), UniProt Q9Y2K2); test: In vitro SIK3 kinase assay; type: biochemical
Description: as §1

[7] = tested on: 12 week old female C57B6 mice, sham or OVX; test: Ovariectomy (OVX) mouse model of post-menopausal osteoporosis; type: in vivo
Description: Recent reports have described the signaling pathway used by PTH in target cells in bone (see e.g., Wein et al, Nature Communications, 2016, 7:13176; Wein et al, Trends Endocrinol Metab. 2018; and Nishimori et al, J. Clin. Invest. 2019). One step in this cascade is that PTH signaling leads to PKA-dependent inhibition of salt inducible kinases (SIKs). Small molecule SIK inhibitors, such as YKL-05-099 (see e.g., Sundberg et al, ACS chemical biology, 2016; and Tarumoto et al, Blood, 2019), a tool compound that inhibits all 3 SIK isoforms, mimic the actions of PTH (see e.g., Wein et al, Nature Communications, 2016, 7:13176). The efficacy of YKL-05-099 has been tested in mice rendered hypo-gonadal by surgical removal of the ovaries, a model of post-menopausal osteoporosis. […] Therefore, mice were generated where SIK2/3 can be deleted ubiquitously in a tamoxifen-dependent manner to assess the safety and skeletal efficacy of selective SIK2/3 deletion in adult animals.

[8] = HEK293 cells, compounds for 60 minutes, read-out: SIK2 NanoBRET
[9] = mice, YKL-05-099 18 mg/kg once daily for 4 weeks

NanoLuc-SIK2 fusion in HEK293 cells, sequence (Q9H0K1 whole entry, the tested form may be a part): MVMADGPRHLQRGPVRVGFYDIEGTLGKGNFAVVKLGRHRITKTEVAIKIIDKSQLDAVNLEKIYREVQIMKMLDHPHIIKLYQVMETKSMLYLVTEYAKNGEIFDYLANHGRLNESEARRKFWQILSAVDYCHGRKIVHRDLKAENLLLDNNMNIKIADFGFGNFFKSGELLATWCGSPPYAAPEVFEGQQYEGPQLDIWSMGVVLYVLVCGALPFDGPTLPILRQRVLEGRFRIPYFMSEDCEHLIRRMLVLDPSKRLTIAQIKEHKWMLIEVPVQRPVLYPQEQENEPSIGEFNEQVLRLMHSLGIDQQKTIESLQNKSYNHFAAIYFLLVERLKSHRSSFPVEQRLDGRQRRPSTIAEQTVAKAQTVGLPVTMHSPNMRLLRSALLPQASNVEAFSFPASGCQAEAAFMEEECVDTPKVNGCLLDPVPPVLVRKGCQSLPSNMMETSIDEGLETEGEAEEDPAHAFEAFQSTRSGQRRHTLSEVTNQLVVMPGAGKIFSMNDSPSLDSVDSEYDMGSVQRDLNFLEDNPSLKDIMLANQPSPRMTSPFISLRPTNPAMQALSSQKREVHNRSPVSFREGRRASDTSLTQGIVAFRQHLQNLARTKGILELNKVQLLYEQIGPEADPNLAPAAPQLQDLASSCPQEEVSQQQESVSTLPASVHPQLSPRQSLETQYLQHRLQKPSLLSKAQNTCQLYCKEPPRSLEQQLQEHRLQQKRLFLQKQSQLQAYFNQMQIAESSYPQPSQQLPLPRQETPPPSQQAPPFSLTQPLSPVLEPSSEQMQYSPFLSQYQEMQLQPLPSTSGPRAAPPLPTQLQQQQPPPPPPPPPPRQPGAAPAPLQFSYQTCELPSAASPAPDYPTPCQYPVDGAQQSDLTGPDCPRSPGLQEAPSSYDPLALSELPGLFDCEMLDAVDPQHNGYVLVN
Recombinant SIK2, sequence (Q9H0K1 whole entry): as the sequence (Q9H0K1 whole entry, the tested form may be a part) above
SIK3, sequence (Q9Y2K2 whole entry): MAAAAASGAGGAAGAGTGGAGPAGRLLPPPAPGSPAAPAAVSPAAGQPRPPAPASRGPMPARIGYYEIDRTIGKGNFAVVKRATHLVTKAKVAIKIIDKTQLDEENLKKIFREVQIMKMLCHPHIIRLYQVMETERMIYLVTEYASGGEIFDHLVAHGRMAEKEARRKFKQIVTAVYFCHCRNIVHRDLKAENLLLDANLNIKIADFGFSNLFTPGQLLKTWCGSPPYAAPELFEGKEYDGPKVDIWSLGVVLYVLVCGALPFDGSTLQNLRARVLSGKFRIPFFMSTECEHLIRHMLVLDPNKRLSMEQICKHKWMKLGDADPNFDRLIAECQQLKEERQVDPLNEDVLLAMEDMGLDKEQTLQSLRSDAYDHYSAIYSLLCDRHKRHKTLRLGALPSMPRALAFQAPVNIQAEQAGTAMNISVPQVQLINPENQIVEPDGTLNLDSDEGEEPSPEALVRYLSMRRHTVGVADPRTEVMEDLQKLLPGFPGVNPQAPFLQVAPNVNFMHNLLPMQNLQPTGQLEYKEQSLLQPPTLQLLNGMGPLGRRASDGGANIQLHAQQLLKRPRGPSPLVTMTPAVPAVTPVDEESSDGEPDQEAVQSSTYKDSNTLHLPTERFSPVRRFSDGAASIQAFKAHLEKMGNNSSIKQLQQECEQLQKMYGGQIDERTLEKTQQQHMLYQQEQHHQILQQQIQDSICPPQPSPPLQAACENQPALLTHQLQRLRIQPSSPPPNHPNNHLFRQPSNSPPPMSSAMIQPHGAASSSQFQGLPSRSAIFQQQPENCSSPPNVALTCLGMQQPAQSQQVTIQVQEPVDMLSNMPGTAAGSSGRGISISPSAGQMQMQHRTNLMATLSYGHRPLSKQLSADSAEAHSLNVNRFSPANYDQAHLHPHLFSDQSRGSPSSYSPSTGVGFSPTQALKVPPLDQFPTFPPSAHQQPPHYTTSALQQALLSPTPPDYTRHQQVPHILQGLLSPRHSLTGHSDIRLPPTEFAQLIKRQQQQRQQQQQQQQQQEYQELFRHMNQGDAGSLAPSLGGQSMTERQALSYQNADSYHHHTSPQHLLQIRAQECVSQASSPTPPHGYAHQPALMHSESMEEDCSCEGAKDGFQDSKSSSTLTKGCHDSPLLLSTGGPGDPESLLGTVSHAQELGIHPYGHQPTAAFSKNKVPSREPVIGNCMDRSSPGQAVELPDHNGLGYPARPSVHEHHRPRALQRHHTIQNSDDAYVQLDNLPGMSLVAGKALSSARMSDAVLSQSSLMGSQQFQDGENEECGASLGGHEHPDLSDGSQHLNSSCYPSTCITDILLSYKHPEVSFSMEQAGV
SIK1, sequence (P57059 whole entry): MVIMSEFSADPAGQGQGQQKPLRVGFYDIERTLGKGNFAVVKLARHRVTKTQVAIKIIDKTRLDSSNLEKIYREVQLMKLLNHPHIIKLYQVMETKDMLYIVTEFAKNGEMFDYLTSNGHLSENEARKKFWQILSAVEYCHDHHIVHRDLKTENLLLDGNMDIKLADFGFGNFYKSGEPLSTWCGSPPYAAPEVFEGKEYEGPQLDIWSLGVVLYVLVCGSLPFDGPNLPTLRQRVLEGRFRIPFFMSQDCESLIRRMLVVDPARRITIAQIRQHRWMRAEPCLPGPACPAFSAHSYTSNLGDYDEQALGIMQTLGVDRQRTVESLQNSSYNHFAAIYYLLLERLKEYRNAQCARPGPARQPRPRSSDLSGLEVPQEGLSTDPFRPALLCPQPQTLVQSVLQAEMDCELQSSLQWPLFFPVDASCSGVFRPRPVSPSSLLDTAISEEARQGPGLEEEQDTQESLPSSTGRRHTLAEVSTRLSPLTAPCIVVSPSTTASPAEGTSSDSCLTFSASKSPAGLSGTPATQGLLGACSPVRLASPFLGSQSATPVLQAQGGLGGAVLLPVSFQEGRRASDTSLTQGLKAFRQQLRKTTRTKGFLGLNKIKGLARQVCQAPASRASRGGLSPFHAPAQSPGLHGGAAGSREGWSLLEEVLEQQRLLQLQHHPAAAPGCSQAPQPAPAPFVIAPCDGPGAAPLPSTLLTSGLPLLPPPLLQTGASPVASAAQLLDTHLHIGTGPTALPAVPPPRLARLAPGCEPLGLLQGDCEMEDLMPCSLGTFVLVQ

Structure (SMILES) | RANKL Fold Induction [1] | IC50 [2] | CRTC2 Efficacy (% of forskolin) [3] | IC50 [4, 8] | IC50 [5] | IC50 [6] | IC50 [4] | bone density / bone mass and bone formation ([7]; OVX mice, once daily for 4 weeks, PTH 100 mcg/d, YKL-05-099 18 mg/kg) | BUN levels / renal function [7, 9] | fasting glucose [7, 9]
N#Cc1ccc(-n2cnc3cc(C(=O)NCc4cn5ccccc5n4)ccc32)cc1 [Example 33, 1-(4-cyanophenyl)-N-(imidazo[1,2-a]pyridin-2-ylmethyl)-1H-benzo[d]imidazole-5-carboxamide] | 0.92 fold | 5420 nM | 21.7 % of forskolin | 44.8 nM | 14.2 nM | 2550 nM | – | – | – | –
N#Cc1ccc(-c2cnn3cc(C(=O)NCc4nc5cccnc5[nH]4)ccc23)cc1 [Example 35, 3-(4-Cyanophenyl)-N-(3H-imidazo[4,5-b]pyridin-2-ylmethyl)pyrazolo[1,5-a]pyridine-6-carboxamide] | 0.39 fold | 2090 nM | 8.9 % of forskolin | – | 7.55 nM | 103 nM | 93.2 nM | – | – | –
N#Cc1ccc(-c2cnn3cc(C(=O)NCc4cccnc4)ccc23)cc1 [Example 37, 3-(4-Cyanophenyl)-N-(3-pyridylmethyl)pyrazolo[1,5-a]pyridine-6-carboxamide] | 1.17 fold | 775 nM | 40.6 % of forskolin | 116 nM | 32.5 nM | 310 nM | – | – | – | –
N#Cc1ccc(-c2cnc3cc(-c4cnn(C5CC5)c4)ccn23)cc1 [Example 49, 4-(7-(1-cyclopropyl-1H-pyrazol-4-yl)imidazo[1,2-a]pyridin-3-yl)benzonitrile] | 6.31 fold | 2.16 nM | 92.2 % of forskolin | 1.36 nM | 0.101 nM | 1.43 nM | – | – | – | –
COc1ccc(N2C(=O)N(c3c(C)cccc3Cl)Cc3cnc(Nc4ccc(C5CCN(C)CC5)cc4OC)nc32)nc1 [YKL-05-099] | – | – | – | – | – | – | – | comparable/superior efficacy; also recorded: increase bone density and bone formation rate | impaired renal function; also recorded: increased | hyper-glycemia; also recorded: increased
